# Measurements as given in ChEMBL document CHEMBL1126012 (J Med Chem, 1992).
# Molecular target: Sodium-dependent dopamine transporter (Rattus norvegicus, UniProt P23977)
# Assay: Inhibition of [3H]3-beta-(p-fluorophenyl)tropane-2beta-carboxylic acid methyl ester [3H]7a binding to Dopamine transporter of rat striatal membranes
# Type: cell membranes, Membrane
# Chain of Sodium-dependent dopamine transporter (P23977 whole entry): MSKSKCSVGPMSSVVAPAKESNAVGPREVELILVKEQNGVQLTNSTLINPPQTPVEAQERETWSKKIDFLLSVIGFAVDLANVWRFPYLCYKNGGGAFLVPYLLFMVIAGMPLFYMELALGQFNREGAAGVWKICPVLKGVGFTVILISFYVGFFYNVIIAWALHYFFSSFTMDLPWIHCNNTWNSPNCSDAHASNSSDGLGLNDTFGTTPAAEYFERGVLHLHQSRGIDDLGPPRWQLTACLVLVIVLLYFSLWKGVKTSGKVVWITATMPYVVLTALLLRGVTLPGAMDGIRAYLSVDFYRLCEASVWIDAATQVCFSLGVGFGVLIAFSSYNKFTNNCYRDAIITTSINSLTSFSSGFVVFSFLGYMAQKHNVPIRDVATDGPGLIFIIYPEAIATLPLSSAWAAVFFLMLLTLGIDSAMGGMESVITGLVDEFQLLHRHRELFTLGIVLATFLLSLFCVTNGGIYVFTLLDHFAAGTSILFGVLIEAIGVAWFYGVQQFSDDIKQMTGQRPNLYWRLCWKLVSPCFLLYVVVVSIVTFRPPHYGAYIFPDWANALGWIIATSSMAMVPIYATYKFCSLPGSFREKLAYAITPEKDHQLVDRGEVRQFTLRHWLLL
row,SMILES,IC50 [µM]
1,CN1CC2CC(OC(=O)c3ccccc3)CC1C2 (stereo in doubt; 4d-(-)),2.85
2,COC(=O)C1C(OC(=O)c2ccccc2)C[C@H]2CCC1N2C(C)=O (some centres undefined),3.37
3,COC(=O)C1C2CC[C@H](CC1OC(=O)c1ccccc1)N2 (some centres undefined),0.303
4,COC(=O)C1C(OC(=O)c2ccccc2)C[C@H]2CCC1N2Cc1ccccc1 (some centres undefined),0.668
5,COC(=O)C1C(OC(=O)c2ccccc2)C[C@H]2CCC1[N+]2(C)C (some centres undefined),10.7
6,CN1CC2CC1C[C@@H](OC(=O)c1ccccc1)C2 (stereo in doubt; 4c),19.8
7,CN1[C@@H]2CC[C@H]1C[C@H](OC(=O)c1ccccc1)C2,21.2
8,CN1CC2CC1C[C@@H](OC(=O)c1ccccc1)C2 (stereo in doubt; 4d),4.95
9,CN1CC2CC(OC(=O)c3ccccc3)CC1C2 (stereo in doubt; 4d-(+)),2.94
